According to patent publication US8889667B2 (Agios Pharmaceuticals, Inc, priority 2010, dated 2014):

Molecular target: PKM2 (Homo sapiens, UniProt P14618)
Assay: PKM2 Assay (activation, LDH-coupled, absorbance at 340 nm)
Type: biochemical
Conditions: Table 4
Procedure: • PKM2 stock enzyme solution was diluted in Reaction Buffer • 2 μL of compound was added into each well first, and then 180 μL of the Reaction Mix was added. • Reaction mixture with compound (without ADP) was incubated for 30 minutes at 4° C. • Plates were re-equilibrated to room temperature prior to adding 20 μL ADP to initiate the reaction. • Reaction progress was measured as changes in absorbance at 340 nm wavelength at room temperature (25° C.) Reaction Mix: PKM2 (50 ng/well), ADP (0.7 mM), PEP (0.15 mM), NADH (180 μM), LDH (2 units) in Reaction Buffer Reaction Buffer: 100 mM KCl, 50 mM Tris pH 7.5, 5 mM MgCl2, 1 mM DTT, 0.03% BSA.
Representative compounds of the invention were tested for their ability to activate PKM2 using the above assay. For simplicity, the activation activity of these compounds is represented as an AC50 in Tables 4 and 5 and throughout the application. […] “B” refers to an activator of PKM2 with an EC50 between 100 nM and 500 nM. “C” refers to an activator of PKM2 with an EC50 between 500 nM and 1000 nM. “D” refers to an activator of PKM2 with an EC50 between 1 μM and 20 μM. “E” refers a compound whose activation of PKM2 was not measurable. “N/C” refers to AC50 data not available.

PKM2, sequence (P14618 whole entry): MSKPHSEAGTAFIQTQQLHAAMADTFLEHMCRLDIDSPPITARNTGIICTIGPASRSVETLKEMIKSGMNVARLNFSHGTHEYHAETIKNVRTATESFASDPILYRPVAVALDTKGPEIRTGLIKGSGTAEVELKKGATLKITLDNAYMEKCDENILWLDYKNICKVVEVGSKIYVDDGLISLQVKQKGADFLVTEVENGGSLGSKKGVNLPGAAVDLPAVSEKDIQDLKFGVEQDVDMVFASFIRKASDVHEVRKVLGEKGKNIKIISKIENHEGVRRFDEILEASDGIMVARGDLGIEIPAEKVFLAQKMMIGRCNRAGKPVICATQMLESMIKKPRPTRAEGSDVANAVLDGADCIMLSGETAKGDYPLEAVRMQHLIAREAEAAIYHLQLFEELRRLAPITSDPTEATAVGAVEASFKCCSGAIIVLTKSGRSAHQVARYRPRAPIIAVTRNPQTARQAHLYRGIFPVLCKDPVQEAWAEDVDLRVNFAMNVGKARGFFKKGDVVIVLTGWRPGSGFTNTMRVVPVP

AC50 [nM]	SMILES
100 to 500	C[C@@H]1CN(C(=O)O[C@@H]2CCCOC2)CCN1C(=O)c1ccc(NS(=O)(=O)c2cccc3cccnc23)cc1 [Compound 127, (R)—((R)-tetrahydro-21′-pyran-3-yl)-3-methyl-4-(4-(quinoline-8-sulfonamido)benzoyl)piperazine-1-carboxylate]
< 100	C[C@@H]1CN(C(=O)OCC2CCCO2)CCN1C(=O)c1ccc(NS(=O)(=O)c2cccc3cccnc23)cc1 (stereo partly drawn) [Compound 128, (3R)-(Tetrahydrofuran-2-yl)methyl3-methyl-4-(4-(quinoline-8-sulfonamido)benzoyl)piperazine-1-carboxylate]
< 100	COc1cccc(CN2CCN(C(=O)c3ccc(NS(=O)(=O)c4cccc5cccnc45)cc3)[C@H](C)C2)c1OC [Compound 130, (R)—N-(4-(4-(2,3-dimethoxybenzyl)-2-methylpiperazine-1-carbonyl)phenyl)quinoline-8-sulfonamide]
< 100	C[C@@H]1CN(Cc2ccc(F)cc2)CCN1C(=O)c1ccc(NS(=O)(=O)c2cccc3cccnc23)cc1 [Compound 131, (R)—N-(4-(4-(4-fluorobenzyl)-2-methylpiperazine-1-carbonyl)phenyl)quinoline-8-sulfonamide]
< 100	C[C@@H]1CN(Cc2c(F)ccc(F)c2F)CCN1C(=O)c1ccc(NS(=O)(=O)c2cccc3cccnc23)cc1 [Compound 132, (R)—N-(4-(2-methyl-4-(2,3,6-trifluorobenzyl)piperazine-1-carbonyl)phenyl)quinoline-8-sulfonamide]
< 100	CC(c1ccc(F)cc1)N1CCN(C(=O)c2ccc(NS(=O)(=O)c3cccc4cccnc34)cc2)[C@H](C)C1 (stereo partly drawn) [Compound 133, N-(4-((2R)-4-(1-(4-fluorophenyl)ethyl)-2-methylpiperazine-1-carbonyl)phenyl)quinoline-8-sulfonamide]
100 to 500	CC[C@H]1CN(Cc2ccc(F)cc2)CCN1C(=O)c1ccc(NS(=O)(=O)c2cccc3cccnc23)cc1 [Compound 134, (S)—N-(4-(2-ethyl-4-(4-fluorobenzyl)piperazine-1-carbonyl)phenyl)quinoline-8-sulfonamide]
< 100	CC(c1cc(F)cc(F)c1)N1CCN(C(=O)c2ccc(NS(=O)(=O)c3cccc4cccnc34)cc2)[C@H](C)C1 (stereo partly drawn) [Compound 135, N-(4-((2R)-4-(1-(3,5-difluorophenyl)ethyl)-2-methylpiperazine-1-carbonyl)phenyl)quinoline-8-sulfonamide]
100 to 500	CC[C@H]1CN(Cc2cc(F)cc(F)c2)CCN1C(=O)c1ccc(NS(=O)(=O)c2cccc3cccnc23)cc1 [Compound 136, (S)—N-(4-(4-(3,5-difluorobenzyl)-2-ethylpiperazine-1-carbonyl)phenyl)quinoline-8-sulfonamide]
< 100	C[C@H]1CN(Cc2cc(F)cc(F)c2F)CCN1C(=O)c1ccc(NS(=O)(=O)c2cccc3cccnc23)cc1 [Compound 137, (S)—N-(4-(2-methyl-4-(2,3,5-trifluorobenzyl)piperazine-1-carbonyl)phenyl)quinoline-8-sulfonamide]
100 to 500	C[C@H]1CN(Cc2ccc(Cl)c(F)c2)CCN1C(=O)c1ccc(NS(=O)(=O)c2cccc3cccnc23)cc1 [Compound 138, (S)—N-(4-(4-(4-chloro-3-fluorobenzyl)-2-methylpiperazine-1-carbonyl)phenyl)quinoline-8-sulfonamide]
100 to 500	C[C@H]1CN(CC2CCOC2)CCN1C(=O)c1ccc(NS(=O)(=O)c2cccc3cccnc23)cc1 (stereo partly drawn) [Compound 139, N-(4-((2S)-2-methyl-4-((tetrahydrofuran-3-yl)methyl)piperazine-1-carbonyl)phenyl)quinoline-8-sulfonamide]
< 100	C[C@H]1CN(CC2CCCC2)CCN1C(=O)c1ccc(NS(=O)(=O)c2cccc3cccnc23)cc1 [Compound 140, (S)—N-(4-(4-(cyclopentylmethyl)-2-methylpiperazine-1-carbonyl)phenyl)quinoline-8-sulfonamide]
100 to 500	C[C@H]1CN(Cc2c(F)ccc(F)c2F)CCN1C(=O)c1ccc(NS(=O)(=O)c2cccc3cccnc23)cc1 [Compound 141, (S)—N-(4-(2-methyl-4-(2,3,6-trifluorobenzyl)piperazine-1-carbonyl)phenyl)quinoline-8-sulfonamide]
< 100	C[C@H]1CN(Cc2cc(F)cc(F)c2)CCN1C(=O)c1ccc(NS(=O)(=O)c2cccc3cccnc23)cc1 [Compound 142, (S)—N-(4-(4-(3,5-difluorobenzyl)-2-methylpiperazine-1-carbonyl)phenyl)quinoline-8-sulfonamide]
< 100	C[C@H]1CN(Cc2ccccc2F)CCN1C(=O)c1ccc(NS(=O)(=O)c2cccc3cccnc23)cc1 [Compound 143, (S)—N-(4-(4-(2-fluorobenzyl)-2-methylpiperazine-1-carbonyl)phenyl)quinoline-8-sulfonamide]
< 100	C[C@H]1CN(CC2CC2)CCN1C(=O)c1ccc(NS(=O)(=O)c2cccc3cccnc23)cc1 [Compound 144, (S)—N-(4-(4-(cyclopropylmethyl)-2-methylpiperazine-1-carbonyl)phenyl)quinoline-8-sulfonamide]
< 100	C[C@H]1CN(Cc2cc(F)c(F)cc2F)CCN1C(=O)c1ccc(NS(=O)(=O)c2cccc3cccnc23)cc1 [Compound 145, (S)—N-(4-(2-methyl-4-(2,4,5-trifluorobenzyl)piperazine-1-carbonyl)phenyl)quinoline-8-sulfonamide]
1000 to 20000	COc1cccc(CN2CCN(C(=O)c3ccc(NS(=O)(=O)c4cccc5cccnc45)cc3)[C@@H](C)C2)c1OC [Compound 146, (S)—N-(4-(4-(2,3-dimethoxybenzyl)-2-methylpiperazine-1-carbonyl)phenyl)quinoline-8-sulfonamide]
< 100	C[C@@H]1CN(CC2CCCO2)CCN1C(=O)c1ccc(NS(=O)(=O)c2cccc3cccnc23)cc1 (stereo partly drawn) [Compound 147, N-(4-((2R)-2-methyl-4-((tetrahydrofuran-2-yl)methyl)piperazine-1-carbonyl)phenyl)quinoline-8-sulfonamide]
< 100	C[C@@H]1CN(Cc2cc(F)c(F)c(F)c2)CCN1C(=O)c1ccc(NS(=O)(=O)c2cccc3cccnc23)cc1 [Compound 149, (R)—N-(4-(2-methyl-4-(3,4,5-trifluorobenzyl)piperazine-1-carbonyl)phenyl)quinoline-8-sulfonamide]
< 100	C[C@@H]1CN(Cc2ccccc2F)CCN1C(=O)c1ccc(NS(=O)(=O)c2cccc3cccnc23)cc1 [Compound 150, (R)—N-(4-(4-(2-fluorobenzyl)-2-methylpiperazine-1-carbonyl)phenyl)quinoline-8-sulfonamide]
< 100	C[C@@H]1CN(CC2CCCCC2)CCN1C(=O)c1ccc(NS(=O)(=O)c2cccc3cccnc23)cc1 [Compound 151, (R)—N-(4-(4-(cyclohexylmethyl)-2-methylpiperazine-1-carbonyl)phenyl)quinoline-8-sulfonamide]
< 100	C[C@H]1CN(Cc2ccc(F)cc2)CCN1C(=O)c1ccc(NS(=O)(=O)c2cccc3cccnc23)cc1 [Compound 152, (S)—N-(4-(4-(4-fluorobenzyl)-2-methylpiperazine-1-carbonyl)phenyl)quinoline-8-sulfonamide]
100 to 500	C[C@H]1CN(CC2CCCCC2)CCN1C(=O)c1ccc(NS(=O)(=O)c2cccc3cccnc23)cc1 [Compound 153, (S)—N-(4-(4-(cyclohexylmethyl)-2-methylpiperazine-1-carbonyl)phenyl)quinoline-8-sulfonamide]
